Calls of active or inactive are those of the source.
Columns and labels:
[1] = target: T1, Fatty acid synthase (Homo sapiens, UniProt P49327); assay: inhibition of human FAS-TE enzyme activity – biochemical, endpoint fluorescence intensity, uHTS hits, dose response (AID 624327); type: functional;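 note: fluorescence from hydrolysis of an O-methyl fluorescein acyl ester substrate by the enzyme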
[2] = target: T1, Fatty acid synthase; assay: inhibition of human FAS-TE enzyme activity – biochemical, kinetic fluorescence intensity, dose response (AID 624326); type: functional;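 note: rate of fluorescence rise from hydrolysis of a fluorogenic O-methyl fluorescein ester substrate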
[3] = target: Nonstructural protein 1 (Influenza A virus, UniProt Q194T2); type: functional, Influenza A virus (A/California/07/2009(H1N1))
Sequence of Nonstructural protein 1 (Q194T2 whole entry): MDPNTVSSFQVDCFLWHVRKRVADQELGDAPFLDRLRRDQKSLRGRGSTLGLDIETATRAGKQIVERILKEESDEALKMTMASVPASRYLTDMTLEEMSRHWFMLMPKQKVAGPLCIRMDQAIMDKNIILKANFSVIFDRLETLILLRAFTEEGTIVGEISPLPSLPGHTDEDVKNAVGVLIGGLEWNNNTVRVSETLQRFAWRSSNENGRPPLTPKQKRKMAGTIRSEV

[4] = target: Albumin (Bos taurus, UniProt P02769); assay: Counterscreen for inhibitors of T-cell receptor (TCR)-CD3 interaction: Fluorescence-based biochemical high throughput dose response assay to identify inhibitors of T-cell receptor (TCR)-CD3 interaction using a TAMRA-labeled BSA probe.; type: functional
Sequence of Albumin (P02769 whole entry): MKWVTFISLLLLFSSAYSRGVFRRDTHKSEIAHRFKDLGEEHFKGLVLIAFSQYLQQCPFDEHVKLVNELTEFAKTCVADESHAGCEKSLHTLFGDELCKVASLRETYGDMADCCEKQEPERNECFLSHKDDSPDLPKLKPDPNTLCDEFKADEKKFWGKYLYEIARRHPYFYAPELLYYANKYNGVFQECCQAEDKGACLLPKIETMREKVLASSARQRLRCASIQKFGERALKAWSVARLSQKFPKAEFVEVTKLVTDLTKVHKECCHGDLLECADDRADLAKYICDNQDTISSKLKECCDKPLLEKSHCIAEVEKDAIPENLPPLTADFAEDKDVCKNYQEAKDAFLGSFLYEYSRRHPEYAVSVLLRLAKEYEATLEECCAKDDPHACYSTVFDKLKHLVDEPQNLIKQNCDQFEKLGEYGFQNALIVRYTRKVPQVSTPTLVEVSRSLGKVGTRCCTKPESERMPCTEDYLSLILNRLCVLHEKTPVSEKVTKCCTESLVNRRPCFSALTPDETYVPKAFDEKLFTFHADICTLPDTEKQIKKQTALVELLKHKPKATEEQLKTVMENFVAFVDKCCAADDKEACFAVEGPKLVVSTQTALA

[5] = target: Prothrombin (Homo sapiens, UniProt P00734); assay: Thrombin 1536 HTS Dose Response Confirmation. [Related pubchem assays: 1046 (Thrombin 1536 HTS; hits were confirmed in this assay)]; type: functional
[6] = target: T2, RNA-binding protein pos-1 (Caenorhabditis elegans, UniProt G5EF15); assay: disruptors of C. elegans POS-1 RNA interaction – biochemical, fluorescence polarization, dose response (AID 1964);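 note: purified POS-1 fused to maltose binding protein made in E. coli; potency of compounds blocking POS-1 binding to fluorescent RNA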
T2 sequence (G5EF15 whole entry): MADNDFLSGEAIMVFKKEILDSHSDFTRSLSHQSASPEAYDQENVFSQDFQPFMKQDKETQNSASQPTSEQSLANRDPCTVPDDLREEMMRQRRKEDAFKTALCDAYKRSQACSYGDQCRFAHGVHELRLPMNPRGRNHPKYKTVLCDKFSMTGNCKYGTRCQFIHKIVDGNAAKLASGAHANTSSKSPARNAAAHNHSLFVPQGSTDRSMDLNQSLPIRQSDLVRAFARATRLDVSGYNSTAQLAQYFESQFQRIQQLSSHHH

[7] = target: T3, Zinc finger protein mex-5 (Caenorhabditis elegans, UniProt Q9XUB2); assay: potency of MEX-5 RNA-binding blockers – biochemical, C. elegans, fluorescence polarization, dose response (AID 1960)
T3 sequence (Q9XUB2 whole entry): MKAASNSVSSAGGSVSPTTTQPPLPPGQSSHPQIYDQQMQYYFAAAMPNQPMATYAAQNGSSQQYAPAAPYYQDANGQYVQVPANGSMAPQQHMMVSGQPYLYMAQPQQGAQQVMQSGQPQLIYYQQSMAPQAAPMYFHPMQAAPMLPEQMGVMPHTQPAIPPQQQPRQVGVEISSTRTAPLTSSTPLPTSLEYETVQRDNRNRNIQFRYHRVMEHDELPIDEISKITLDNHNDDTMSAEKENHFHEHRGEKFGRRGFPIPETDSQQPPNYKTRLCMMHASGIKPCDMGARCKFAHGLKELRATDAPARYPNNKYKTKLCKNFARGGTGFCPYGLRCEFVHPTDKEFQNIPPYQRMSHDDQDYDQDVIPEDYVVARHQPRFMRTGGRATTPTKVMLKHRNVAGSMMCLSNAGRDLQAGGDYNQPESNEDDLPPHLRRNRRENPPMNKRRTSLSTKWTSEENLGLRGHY

[8] = target: Heat shock protein HSP 90-alpha (Homo sapiens, UniProt P07900); type: functional, organism-based
[9] = target: Genome polyprotein (dengue virus type 2, UniProt P29990); assay: flavivirus cap methylation enzyme inhibition – biochemical, confirmation dose response, primary screen (AID 588689); type: functional
Sequence of Genome polyprotein (P29990 2492-3391 limits assumed): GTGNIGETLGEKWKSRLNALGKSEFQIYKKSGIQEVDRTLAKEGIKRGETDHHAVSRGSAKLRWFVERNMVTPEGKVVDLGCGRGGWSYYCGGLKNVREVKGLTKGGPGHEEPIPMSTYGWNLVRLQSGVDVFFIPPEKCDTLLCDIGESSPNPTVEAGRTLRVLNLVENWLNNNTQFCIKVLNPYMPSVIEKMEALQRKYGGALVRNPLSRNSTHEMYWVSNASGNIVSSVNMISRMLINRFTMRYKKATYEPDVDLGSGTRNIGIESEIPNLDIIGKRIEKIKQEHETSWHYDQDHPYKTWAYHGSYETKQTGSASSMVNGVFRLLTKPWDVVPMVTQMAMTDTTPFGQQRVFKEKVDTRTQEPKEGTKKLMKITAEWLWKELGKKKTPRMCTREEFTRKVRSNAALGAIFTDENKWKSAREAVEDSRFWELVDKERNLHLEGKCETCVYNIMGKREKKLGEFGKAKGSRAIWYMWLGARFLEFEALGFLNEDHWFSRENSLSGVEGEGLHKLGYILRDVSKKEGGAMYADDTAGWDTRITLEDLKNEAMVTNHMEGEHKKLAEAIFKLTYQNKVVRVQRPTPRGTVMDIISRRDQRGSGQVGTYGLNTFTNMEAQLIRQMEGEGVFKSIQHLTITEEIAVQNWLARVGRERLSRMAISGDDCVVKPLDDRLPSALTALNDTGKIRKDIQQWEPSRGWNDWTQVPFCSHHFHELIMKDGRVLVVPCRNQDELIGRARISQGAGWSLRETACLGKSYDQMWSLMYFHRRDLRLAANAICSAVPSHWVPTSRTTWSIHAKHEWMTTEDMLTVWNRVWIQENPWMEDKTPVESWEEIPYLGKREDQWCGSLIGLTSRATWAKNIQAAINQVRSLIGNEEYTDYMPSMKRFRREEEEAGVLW

[10] = Luminescence Cell-Based Dose Confirmation HTS to Identify Activators of 5'UTR Stem-Loop Driven Alpha-Synuclein mRNA Translation in H4 Neuroglioblastoma Cells. [Related pubchem assays: 1829 (Project Summary), 1814 (Primary HTS)]; type: functional
[11] = Luminescence Cell-Based Dose Response HTS to Identify Activators of Luciferase Translation or Activity in H4 […] Cells. [Related pubchem assays: 1829 (Project Summary), 1814 (Primary HTS)]; type: functional
[12] = system: H4; assay: Luminescence Cell-Based Dose Response HTS to Identify Activators of 5'UTR Stem-Loop Driven Prion Protein mRNA Translation in H4 Neuroglioblastoma Cells. [Related pubchem assays: 1829 (Project Summary), 1814 (Primary HTS)]; type: functional; details: Homo sapiens
[13] = Counterscreen for inhibitors of Trypanosoma brucei methionyl tRNA synthetase (MetRS): Luminescence-based cell-based high throughput dose response assay to identify compounds that are cytotoxic to Jurkat human T lymphocyte cells.; type: functional
[14] = target: T4, Calpain-2 catalytic subunit (Sus scrofa, UniProt P43367); assay: m-calpain protease blockers, concentration series – biochemical, fluorogenic peptide substrate, dose response (AID 1420); type: functional
T4 sequence (P43367 whole entry): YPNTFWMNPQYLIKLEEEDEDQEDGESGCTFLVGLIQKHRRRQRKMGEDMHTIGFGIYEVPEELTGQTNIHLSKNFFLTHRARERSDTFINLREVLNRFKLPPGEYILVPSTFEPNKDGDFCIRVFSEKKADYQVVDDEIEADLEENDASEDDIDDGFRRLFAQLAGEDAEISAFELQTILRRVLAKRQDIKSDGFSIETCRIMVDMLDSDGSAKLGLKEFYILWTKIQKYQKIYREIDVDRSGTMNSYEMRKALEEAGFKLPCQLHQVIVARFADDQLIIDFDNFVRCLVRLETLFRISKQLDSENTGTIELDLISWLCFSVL

[15] = target: Large T antigen (Simian virus 40, UniProt P03070); type: functional, Betapolyomavirus macacae;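 note: Confirmatory-stage PubChem screen for compounds that inhibit SV40 T antigen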
Sequence of Large T antigen (P03070 whole entry): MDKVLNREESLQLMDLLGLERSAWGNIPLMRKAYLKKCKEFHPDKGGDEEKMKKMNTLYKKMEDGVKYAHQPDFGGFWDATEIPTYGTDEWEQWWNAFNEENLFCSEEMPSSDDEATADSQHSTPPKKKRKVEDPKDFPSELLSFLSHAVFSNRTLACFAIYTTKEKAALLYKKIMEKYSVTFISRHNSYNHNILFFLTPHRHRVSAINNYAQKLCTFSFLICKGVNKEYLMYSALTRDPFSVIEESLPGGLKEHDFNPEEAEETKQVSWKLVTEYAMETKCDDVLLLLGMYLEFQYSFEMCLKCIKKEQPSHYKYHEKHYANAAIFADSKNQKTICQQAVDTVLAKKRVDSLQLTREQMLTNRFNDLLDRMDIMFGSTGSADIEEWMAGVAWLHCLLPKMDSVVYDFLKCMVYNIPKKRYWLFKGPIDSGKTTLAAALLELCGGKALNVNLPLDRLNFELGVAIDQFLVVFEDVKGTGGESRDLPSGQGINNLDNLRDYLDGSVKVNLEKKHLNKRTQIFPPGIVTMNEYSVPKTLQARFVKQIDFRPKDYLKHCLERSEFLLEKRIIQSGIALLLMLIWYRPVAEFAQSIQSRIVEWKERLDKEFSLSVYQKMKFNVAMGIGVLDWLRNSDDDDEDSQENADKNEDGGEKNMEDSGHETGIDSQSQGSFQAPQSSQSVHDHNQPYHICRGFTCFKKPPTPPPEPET

[16] = target: T5, Replicative DNA helicase DnaB (Mycobacterium tuberculosis, UniProt P9WMR3); assay: DnaB intein splicing inhibitors, dose response, biochemical, cell-free fluorescence (AID 449749); type: functional
T5 sequence (P9WMR3 whole entry): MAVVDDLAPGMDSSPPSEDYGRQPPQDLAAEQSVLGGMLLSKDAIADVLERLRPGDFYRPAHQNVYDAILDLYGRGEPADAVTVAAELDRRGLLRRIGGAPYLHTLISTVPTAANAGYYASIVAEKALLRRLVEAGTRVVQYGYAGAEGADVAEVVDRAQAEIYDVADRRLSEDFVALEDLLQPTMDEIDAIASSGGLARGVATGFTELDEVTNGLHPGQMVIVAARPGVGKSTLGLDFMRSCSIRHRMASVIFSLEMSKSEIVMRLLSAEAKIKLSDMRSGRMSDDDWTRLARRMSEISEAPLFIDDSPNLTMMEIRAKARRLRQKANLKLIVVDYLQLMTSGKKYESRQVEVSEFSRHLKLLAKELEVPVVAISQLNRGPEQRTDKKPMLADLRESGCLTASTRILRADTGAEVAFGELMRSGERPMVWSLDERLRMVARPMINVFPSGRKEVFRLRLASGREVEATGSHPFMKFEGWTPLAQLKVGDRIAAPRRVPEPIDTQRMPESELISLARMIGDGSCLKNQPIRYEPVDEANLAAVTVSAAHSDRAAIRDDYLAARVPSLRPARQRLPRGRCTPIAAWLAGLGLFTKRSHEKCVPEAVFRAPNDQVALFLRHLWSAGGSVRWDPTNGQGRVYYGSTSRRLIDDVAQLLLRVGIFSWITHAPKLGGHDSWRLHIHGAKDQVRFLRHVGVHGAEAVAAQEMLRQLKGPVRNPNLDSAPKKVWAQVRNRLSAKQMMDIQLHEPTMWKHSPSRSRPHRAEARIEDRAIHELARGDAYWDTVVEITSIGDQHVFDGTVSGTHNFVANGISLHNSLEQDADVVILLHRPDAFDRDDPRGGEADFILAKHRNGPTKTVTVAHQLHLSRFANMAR

[17] = target: T6, Protein RecA (Mycobacterium tuberculosis, UniProt P9WHJ3); assay: Fluorescence Cell-Free Homogeneous Dose Retest to Identify Inhibitors of RecA-Intein Splicing Activity. [Related pubchem assays (depositor defined):AID2097, AID2223, AID489010, AID492950]; type: functional
T6 sequence (P9WHJ3 whole entry): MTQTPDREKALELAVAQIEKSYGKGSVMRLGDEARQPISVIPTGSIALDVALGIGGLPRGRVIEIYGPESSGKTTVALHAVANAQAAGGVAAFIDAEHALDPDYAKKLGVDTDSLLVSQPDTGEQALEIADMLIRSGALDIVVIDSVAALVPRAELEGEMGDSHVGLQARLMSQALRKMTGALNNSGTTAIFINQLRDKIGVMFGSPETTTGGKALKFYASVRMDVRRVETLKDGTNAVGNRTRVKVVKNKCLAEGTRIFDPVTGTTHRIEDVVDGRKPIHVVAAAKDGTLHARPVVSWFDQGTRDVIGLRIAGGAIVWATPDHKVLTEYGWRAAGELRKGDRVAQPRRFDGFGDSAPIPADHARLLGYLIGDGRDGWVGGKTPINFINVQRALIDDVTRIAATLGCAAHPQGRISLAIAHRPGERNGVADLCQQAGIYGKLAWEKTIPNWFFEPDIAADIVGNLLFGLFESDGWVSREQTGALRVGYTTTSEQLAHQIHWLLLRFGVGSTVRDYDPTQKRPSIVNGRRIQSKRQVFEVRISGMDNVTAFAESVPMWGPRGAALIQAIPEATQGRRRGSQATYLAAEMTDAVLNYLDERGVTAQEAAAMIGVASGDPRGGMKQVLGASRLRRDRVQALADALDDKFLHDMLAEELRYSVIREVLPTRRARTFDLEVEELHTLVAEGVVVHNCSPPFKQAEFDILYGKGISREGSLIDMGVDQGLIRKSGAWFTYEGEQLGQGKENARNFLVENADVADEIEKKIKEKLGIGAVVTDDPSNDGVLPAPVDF

[18] = target: T7, Caspase-6 (Homo sapiens, UniProt P55212); assay: inhibition of CASP6 peptide cleavage – biochemical, VEID-R110 fluorescence, cherry-pick, dose response (AID 720632)
T7 sequence (P55212 whole entry): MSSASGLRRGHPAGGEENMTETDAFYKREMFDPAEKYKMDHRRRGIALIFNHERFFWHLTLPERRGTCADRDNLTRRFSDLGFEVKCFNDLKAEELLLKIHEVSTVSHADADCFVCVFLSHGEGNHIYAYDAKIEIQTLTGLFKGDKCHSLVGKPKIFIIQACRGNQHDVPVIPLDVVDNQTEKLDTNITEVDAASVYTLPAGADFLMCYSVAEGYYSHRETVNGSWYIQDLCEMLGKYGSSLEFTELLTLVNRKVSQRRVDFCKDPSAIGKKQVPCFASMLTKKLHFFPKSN

[19] = target: T8, High affinity choline transporter 1 (Homo sapiens, UniProt Q9GZV3); assay: human choline transporter blockers, potency – cell-based, 5-point CRC, membrane potential dye, dose response (AID 504840); type: functional
T8 sequence (Q9GZV3 whole entry): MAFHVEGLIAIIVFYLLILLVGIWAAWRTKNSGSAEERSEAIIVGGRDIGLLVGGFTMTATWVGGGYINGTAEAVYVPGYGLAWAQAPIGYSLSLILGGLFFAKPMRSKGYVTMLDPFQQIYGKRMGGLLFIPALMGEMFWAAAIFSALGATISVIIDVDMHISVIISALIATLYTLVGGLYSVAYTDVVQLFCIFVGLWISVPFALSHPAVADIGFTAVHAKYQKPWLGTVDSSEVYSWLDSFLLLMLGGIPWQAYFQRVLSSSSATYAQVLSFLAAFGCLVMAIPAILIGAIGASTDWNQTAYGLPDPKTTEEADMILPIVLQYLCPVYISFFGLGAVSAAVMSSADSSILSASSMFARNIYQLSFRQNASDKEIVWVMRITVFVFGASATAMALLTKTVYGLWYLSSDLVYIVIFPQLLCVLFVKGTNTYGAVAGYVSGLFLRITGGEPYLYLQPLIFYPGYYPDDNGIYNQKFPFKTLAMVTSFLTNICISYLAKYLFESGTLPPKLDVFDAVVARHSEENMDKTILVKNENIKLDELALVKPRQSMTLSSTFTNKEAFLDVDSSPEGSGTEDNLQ

T1 sequence (P49327 whole entry): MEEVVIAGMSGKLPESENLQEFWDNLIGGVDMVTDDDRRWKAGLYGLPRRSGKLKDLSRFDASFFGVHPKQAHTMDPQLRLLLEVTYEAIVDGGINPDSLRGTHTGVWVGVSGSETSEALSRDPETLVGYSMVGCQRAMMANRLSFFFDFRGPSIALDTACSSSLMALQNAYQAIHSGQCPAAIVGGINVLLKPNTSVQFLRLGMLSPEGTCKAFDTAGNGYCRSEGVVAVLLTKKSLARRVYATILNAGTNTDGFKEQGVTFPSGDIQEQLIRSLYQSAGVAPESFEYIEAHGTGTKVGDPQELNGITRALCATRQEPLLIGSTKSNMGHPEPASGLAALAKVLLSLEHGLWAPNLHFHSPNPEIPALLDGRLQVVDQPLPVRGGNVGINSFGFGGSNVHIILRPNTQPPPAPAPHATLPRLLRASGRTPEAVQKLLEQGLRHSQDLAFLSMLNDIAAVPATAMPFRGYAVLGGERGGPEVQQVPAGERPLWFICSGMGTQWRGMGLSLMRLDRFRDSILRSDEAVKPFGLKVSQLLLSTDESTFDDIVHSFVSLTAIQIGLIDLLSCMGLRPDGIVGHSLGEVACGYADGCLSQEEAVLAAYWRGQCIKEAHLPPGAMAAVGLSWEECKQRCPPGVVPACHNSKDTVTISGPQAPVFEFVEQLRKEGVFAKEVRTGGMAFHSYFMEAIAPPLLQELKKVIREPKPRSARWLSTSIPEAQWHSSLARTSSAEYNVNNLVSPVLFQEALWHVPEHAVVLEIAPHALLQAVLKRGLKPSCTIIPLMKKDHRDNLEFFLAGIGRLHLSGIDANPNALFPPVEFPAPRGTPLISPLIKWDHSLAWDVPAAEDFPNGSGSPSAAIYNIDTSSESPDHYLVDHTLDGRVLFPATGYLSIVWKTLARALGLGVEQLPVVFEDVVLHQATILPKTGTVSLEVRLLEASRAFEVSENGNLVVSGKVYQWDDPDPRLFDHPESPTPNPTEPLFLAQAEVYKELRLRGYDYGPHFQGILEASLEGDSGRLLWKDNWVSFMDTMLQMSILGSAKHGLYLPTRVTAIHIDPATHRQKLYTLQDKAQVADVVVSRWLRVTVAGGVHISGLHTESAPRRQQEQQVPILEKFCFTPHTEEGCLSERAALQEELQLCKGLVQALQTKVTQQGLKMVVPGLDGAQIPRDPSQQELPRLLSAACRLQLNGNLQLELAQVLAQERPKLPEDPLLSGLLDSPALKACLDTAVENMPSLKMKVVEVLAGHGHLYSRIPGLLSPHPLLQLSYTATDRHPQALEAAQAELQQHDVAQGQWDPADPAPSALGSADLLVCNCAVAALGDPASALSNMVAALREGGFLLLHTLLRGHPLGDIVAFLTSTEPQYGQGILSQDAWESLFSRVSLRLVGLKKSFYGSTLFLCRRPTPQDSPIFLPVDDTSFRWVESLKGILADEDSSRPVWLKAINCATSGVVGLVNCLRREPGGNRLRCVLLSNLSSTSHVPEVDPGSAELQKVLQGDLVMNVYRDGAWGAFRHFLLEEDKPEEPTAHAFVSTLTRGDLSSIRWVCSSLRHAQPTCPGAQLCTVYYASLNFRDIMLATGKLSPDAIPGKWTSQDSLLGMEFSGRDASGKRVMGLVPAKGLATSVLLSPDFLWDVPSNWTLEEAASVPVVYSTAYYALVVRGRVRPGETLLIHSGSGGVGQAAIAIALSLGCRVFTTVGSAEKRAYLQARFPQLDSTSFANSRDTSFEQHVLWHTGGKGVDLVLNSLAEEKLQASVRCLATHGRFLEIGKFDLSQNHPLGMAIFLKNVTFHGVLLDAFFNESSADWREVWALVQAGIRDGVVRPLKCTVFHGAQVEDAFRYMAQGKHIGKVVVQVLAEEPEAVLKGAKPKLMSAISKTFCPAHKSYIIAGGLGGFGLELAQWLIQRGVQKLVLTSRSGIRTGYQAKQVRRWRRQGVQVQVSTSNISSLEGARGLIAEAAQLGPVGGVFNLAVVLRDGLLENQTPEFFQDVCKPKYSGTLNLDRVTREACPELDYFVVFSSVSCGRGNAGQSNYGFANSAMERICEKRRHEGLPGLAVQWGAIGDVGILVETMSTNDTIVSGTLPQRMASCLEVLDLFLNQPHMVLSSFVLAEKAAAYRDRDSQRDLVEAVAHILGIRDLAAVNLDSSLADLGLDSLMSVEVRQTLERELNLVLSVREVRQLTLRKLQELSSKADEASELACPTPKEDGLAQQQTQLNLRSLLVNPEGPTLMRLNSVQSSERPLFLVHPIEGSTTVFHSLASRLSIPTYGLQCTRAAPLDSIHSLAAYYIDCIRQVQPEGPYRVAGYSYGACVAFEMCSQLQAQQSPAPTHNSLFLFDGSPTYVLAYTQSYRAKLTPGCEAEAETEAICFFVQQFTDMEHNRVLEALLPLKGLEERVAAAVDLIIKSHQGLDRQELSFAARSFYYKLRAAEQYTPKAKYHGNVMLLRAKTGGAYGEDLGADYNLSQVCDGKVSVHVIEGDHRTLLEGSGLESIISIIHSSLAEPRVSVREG

Compound: COc1ccc([N+](=O)[O-])cc1NC(=O)Nc1ccccc1
- IC50 [1]: 19.9 µM (active)
- IC50 [2]: 15.5 µM (active)

Compound: COc1cc(O)c(/C=N/NC(=O)c2ccncc2)c(OC)c1[N+](=O)[O-]
- IC50 [3]: 8.82 µM (active)
- IC50 [4]: > 94.1 µM (inactive)

Compound: Cc1ccnc(NC(=O)c2ccc([N+](=O)[O-])o2)c1
- IC50 [5]: > 50 µM (not active)

Compound: CCC(=O)OC1(C)C(=O)C2=COC(c3ccc(OC)cc3)=CC2=C(Br)C1=O (stereo not drawn)
- EC50 [6]: 31.5 µM (active)
- EC50 [7]: 32.9 µM (active)
- AC50 [8]: 1.51 µM (active)
- IC50 [9]: > 100 µM (active)

Compound: Fc1ccccc1CSc1nc2cc(Br)c[nH]c-2n1
- EC50 [10]: 0.116 µM (active)
- EC50 [11]: 89.7 µM (active)
- EC50 [12]: 20.3 µM (active)
- IC50 [13]: 83.3 µM (inactive)

Compound: CCc1ccc(S(=O)(=O)NCc2cn3c(C)csc3n2)s1
- IC50 [14]: 6.07 µM (not active)

Compound: O=C(O)c1cc(Nc2cc(Cl)c3nonc3c2[N+](=O)[O-])ccc1O
- IC50 [15]: 40.4 µM (active)
- AC50 [16]: 1.17 µM (active)
- EC50 [17]: 1.33 µM (active)
- IC50 [9]: 8.55 µM (active)
- AC50 [18]: 14.6 µM (active)

Compound: CC(C)CSc1ncc(-c2cccc(C(F)(F)F)c2)cn1
- IC50 [1]: 15.5 µM (active)
- IC50 [2]: 14.2 µM (active)

Compound: COC(=O)Nc1ccc(S(=O)(=O)NNC(=O)c2c(O)c3ccccc3n(C)c2=O)cc1
- IC50 [19]: 13.2 µM (active)
- IC50 [4]: > 94.1 µM (inactive)

Compound: COc1ccc(Cl)cc1N(CC(=O)N/N=C/c1ccc(OCC(N)=O)cc1)S(C)(=O)=O
- AC50 [18]: 9 µM (active)

Compound: COc1ccccc1CNC(=O)COC(=O)c1cc([N+](=O)[O-])ccc1N1CCOCC1
- IC50 [1]: 1.31 µM (active)
- IC50 [2]: 1.64 µM (active)

Compound: Cc1nc(-c2cnn(-c3ccccc3)c2)c2cc(C)oc2n1
- IC50 [5]: > 50 µM (not active)

Compound: C=C(C)COc1ccc(-c2n[nH]cc2Oc2ccccc2OCC)c(O)c1
- IC50 [14]: 11.7 µM (not active)

Compound: Cc1c(Cl)cnc(NC(=O)COC(=O)CCC(=O)c2cccs2)c1Cl
- IC50 [5]: 2.77 µM (active)

Compound: N#Cc1ccc(Sc2nc3ccccc3[nH]2)cc1C#N
- IC50 [1]: 2.7 µM (active)
- IC50 [2]: 2.3 µM (active)

Compound: CC(C)(C)c1csc(N/N=C/c2cccnc2)n1
- IC50 [14]: 18.6 µM (not active)

Compound: O=C(O)c1ccc(Cl)c(S(=O)(=O)Nc2ccc3c[nH]nc3c2)c1
- AC50 [18]: 11.1 µM (active)
